The values below come from paper PMC7044277 (Nature Communications, 2020).

Several values for one entry are separate records, joined by “and”; a condition that tells them apart may be missing. Identical values can stand only once.

Assay type in all cases: cell-based
For assay [1], the target named is 320 non-olfactory GPCRs (Homo sapiens, UniProt P32238).
Assay [2] has as its target T1, 320 non-olfactory GPCRs (Homo sapiens, UniProt P18089).
T1 construct: expressed in transfected cells; host or cells: HTLA cells

For assay [3], the target named is T2, 320 non-olfactory GPCRs (Homo sapiens, UniProt P47900).
T2 construct: expressed in transfected cells; host or cells: HTLA cells
T2 sequence (P47900 whole entry): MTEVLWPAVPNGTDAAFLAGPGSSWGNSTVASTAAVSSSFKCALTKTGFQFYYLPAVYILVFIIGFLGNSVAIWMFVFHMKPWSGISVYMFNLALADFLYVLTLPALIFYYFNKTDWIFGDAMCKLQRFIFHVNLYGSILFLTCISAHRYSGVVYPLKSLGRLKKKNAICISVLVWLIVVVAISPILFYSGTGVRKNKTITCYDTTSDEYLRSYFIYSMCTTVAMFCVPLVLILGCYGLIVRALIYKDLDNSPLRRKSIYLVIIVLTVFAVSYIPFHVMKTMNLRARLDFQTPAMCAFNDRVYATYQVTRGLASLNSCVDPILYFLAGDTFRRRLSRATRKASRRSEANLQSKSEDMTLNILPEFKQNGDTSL
The settings on record: receptor P2RY1; replicate values, Fig_4g.

In assay [4] the target is T3, 320 non-olfactory GPCRs (Homo sapiens, UniProt Q96P66).
T3 construct: expressed in transfected cells; host or cells: HTLA cells
T3 sequence (Q96P66 whole entry): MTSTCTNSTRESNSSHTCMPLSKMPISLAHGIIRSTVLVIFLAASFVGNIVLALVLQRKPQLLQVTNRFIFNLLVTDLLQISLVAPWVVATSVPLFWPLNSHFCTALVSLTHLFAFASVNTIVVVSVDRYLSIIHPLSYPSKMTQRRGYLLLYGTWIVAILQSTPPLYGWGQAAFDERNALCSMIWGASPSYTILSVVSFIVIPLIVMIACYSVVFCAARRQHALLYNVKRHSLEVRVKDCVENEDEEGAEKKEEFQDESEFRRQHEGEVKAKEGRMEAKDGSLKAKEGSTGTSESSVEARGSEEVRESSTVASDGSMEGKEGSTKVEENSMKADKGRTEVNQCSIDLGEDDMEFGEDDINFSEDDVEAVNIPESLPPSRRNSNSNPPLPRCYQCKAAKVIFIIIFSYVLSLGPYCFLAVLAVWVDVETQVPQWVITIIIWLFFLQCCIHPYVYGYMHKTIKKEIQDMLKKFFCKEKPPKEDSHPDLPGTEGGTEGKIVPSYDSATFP
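For Fold of Basal in this document: compound tested at 1 µM final concentration.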
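For GPCRome agonism screen response in this document: fold over basal response of each receptor without drug.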

Chain of 320 non-olfactory GPCRs (Homo sapiens, UniProt P32238) (P32238 whole entry): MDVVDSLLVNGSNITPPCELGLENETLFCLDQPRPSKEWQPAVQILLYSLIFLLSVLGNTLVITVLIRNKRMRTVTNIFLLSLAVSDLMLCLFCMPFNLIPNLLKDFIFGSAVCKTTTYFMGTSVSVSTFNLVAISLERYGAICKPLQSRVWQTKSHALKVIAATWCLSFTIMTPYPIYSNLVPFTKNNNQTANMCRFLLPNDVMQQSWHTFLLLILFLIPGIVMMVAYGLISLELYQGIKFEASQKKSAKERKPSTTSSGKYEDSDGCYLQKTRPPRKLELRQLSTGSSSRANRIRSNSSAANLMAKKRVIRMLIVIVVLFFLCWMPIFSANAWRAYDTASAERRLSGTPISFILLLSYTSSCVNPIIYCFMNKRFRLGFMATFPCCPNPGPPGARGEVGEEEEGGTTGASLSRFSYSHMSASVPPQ
T1 sequence (P18089 whole entry): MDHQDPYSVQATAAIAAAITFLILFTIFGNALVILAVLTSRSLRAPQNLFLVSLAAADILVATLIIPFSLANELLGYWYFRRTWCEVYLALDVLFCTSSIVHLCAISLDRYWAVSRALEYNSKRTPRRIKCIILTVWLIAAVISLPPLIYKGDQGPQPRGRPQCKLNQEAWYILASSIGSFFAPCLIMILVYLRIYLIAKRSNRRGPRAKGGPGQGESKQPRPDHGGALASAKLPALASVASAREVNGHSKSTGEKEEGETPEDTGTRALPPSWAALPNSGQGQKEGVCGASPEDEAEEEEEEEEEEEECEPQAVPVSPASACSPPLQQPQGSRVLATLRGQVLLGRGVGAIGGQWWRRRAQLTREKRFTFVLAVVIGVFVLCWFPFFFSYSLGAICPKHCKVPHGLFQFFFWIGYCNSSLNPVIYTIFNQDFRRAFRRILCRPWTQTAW

Take `CCOc1cccc2cc(C(C)NCC3(O)CCCCC3)oc12` (stereo not shown) [O4LE6]: the “Fold of Basal” value at 320 non-olfactory GPCRs [1] is 0.8879 and 0.8535 and 0.8133 and 1.029; on 320 non-olfactory GPCRs [2], 0.5251 and 0.72 and 0.7774 and 1.019; at 320 non-olfactory GPCRs [4], 1.216 and 1.226 and 0.7864 and 1.078. Besides, the “GPCRome agonism screen response” value at 320 non-olfactory GPCRs [3] was 1.006 and 0.5483 and 1.2859 and 1.3533.
